Measurements taken from ChEMBL document CHEMBL3817825, “Synthesis and biological evaluation of Schiff base-linked imidazolyl naphthalimides as novel potential anti-MRSA agents” (2016).
Values after ≈ are worked out from the molar mass of the structure shown.

Legend:
Candida albicans = test: Antifungal activity against Candida albicans ATCC76615 after 24 hrs by two fold serial dilution method; assay type: functional; details: ATCC76615, 24 h
Candida = test: Antifungal activity against Candida mycoderma ATCC10231 after 24 hrs by two fold serial dilution method; assay type: functional; details: ATCC10231, 24 h
Saccharomyces cerevisiae = test: Antifungal activity against Beer yeast ATCC9763 after 24 hrs by two fold serial dilution method; assay type: functional; details: ATCC9763, 24 h
Aspergillus flavus = test: Antifungal activity against Aspergillus flavus ATCC204304 after 24 hrs by two fold serial dilution method; assay type: functional; details: ATCC204304, 24 h
Cyberlindnera jadinii = test: Antifungal activity against Candida utilis ATCC9950 after 24 hrs by two fold serial dilution method; assay type: functional; details: Williopsis jadinii, ATCC9950, 24 h
Staphylococcus aureus [1] = test: Antibacterial activity against Staphylococcus aureus ATCC25923 after 24 hrs by two fold serial dilution method; assay type: functional; details: ATCC25923, 24 h
Shigella dysenteriae = test: Antibacterial activity against Shigella dysenteriae after 24 hrs by two fold serial dilution method; assay type: functional
Staphylococcus aureus [2] = test: Antibacterial activity against methicillin-resistant Staphylococcus aureus N315 after 24 hrs by two fold serial dilution method; assay type: functional; details: N315, 24 h
Escherichia coli [3] = test: Antibacterial activity against Escherichia coli JM109 after 24 hrs by two fold serial dilution method; assay type: functional; details: JM109, 24 h
Bacillus = test: Antibacterial activity against Bacillus proteus ATCC13315 after 24 hrs by two fold serial dilution method; assay type: functional; details: ATCC13315, 24 h
Micrococcus luteus = test: Antibacterial activity against Micrococcus luteus ATCC4698 after 24 hrs by two fold serial dilution method; assay type: functional; details: ATCC4698, 24 h
Salmonella typhi = test: Antibacterial activity against Bacillus typhi after 24 hrs by two fold serial dilution method; assay type: functional, Salmonella enterica subsp. enterica serovar Typhi; details: Salmonella enterica
Escherichia coli [4] = test: Antibacterial activity against Escherichia coli DH52 after 24 hrs by two fold serial dilution method; assay type: functional; details: DH52, 24 h
Pseudomonas aeruginosa = test: Antibacterial activity against Pseudomonas aeruginosa ATCC27853 after 24 hrs by two fold serial dilution method; assay type: functional; details: ATCC27853, 24 h
Bacillus subtilis [5] = test: Antibacterial activity against Bacillus subtilis ATCC6633 after 24 hrs by two fold serial dilution method; assay type: functional; details: ATCC6633, 24 h
Bacillus subtilis [6] = test: Potency index, ratio of chloromycin MIC to compound MIC for Bacillus subtilis ATCC6633; assay type: functional

Compound: OC(Cn1cncn1)(Cn1cncn1)c1ccc(F)cc1F [FLUCONAZOLE]
- MIC (Candida albicans): 3 µM (≈ 0.919 µg/mL)
- MIC (Candida): 10 µM (≈ 3.06 µg/mL)
- MIC (Saccharomyces cerevisiae): 50 µM (≈ 15.3 µg/mL)
- MIC (Aspergillus flavus): 840 µM (≈ 257 µg/mL)
- MIC (Cyberlindnera jadinii): 30 µM (≈ 9.19 µg/mL)

Compound: CCCCc1nc(Cl)c(/C=N/N2C(=O)c3cccc4c(N5CCOCC5)ccc(c34)C2=O)n1Cc1ccc(Cl)c(Cl)c1
- MIC (Staphylococcus aureus [1]): 740 µM (≈ 462 µg/mL)
- MIC (Shigella dysenteriae): 0.74 µM (≈ 0.462 µg/mL)
- MIC (Staphylococcus aureus [2]): 370 µM (≈ 231 µg/mL)
- MIC (Candida albicans): 370 µM (≈ 231 µg/mL)
- MIC (Escherichia coli [3]): 370 µM (≈ 231 µg/mL)
- MIC (Bacillus): 180 µM (≈ 112 µg/mL)
- MIC (Candida): 370 µM (≈ 231 µg/mL)
- MIC (Micrococcus luteus): 370 µM (≈ 231 µg/mL)
- MIC (Salmonella typhi): 0.74 µM (≈ 0.462 µg/mL)
- MIC (Saccharomyces cerevisiae): 180 µM (≈ 112 µg/mL)
- MIC (Escherichia coli [4]): 180 µM (≈ 112 µg/mL)
- MIC (Aspergillus flavus): 740 µM (≈ 462 µg/mL)
- MIC (Cyberlindnera jadinii): 370 µM (≈ 231 µg/mL)
- MIC (Pseudomonas aeruginosa): 740 µM (≈ 462 µg/mL)
- MIC (Bacillus subtilis [5]): 370 µM (≈ 231 µg/mL)

Compound: CCCCc1nc(Cl)c(/C=N/N2C(=O)c3cccc4c(N5CCOCC5)ccc(c34)C2=O)n1Cc1ccccc1F
- MIC (Staphylococcus aureus [1]): 220 µM (≈ 126 µg/mL)
- MIC (Shigella dysenteriae): 0.44 µM (≈ 0.253 µg/mL)
- MIC (Staphylococcus aureus [2]): 440 µM (≈ 253 µg/mL)
- MIC (Candida albicans): 440 µM (≈ 253 µg/mL)
- MIC (Escherichia coli [3]): 110 µM (≈ 63.1 µg/mL)
- MIC (Bacillus): 440 µM (≈ 253 µg/mL)
- MIC (Candida): 440 µM (≈ 253 µg/mL)
- MIC (Micrococcus luteus): 220 µM (≈ 126 µg/mL)
- MIC (Salmonella typhi): 0.44 µM (≈ 0.253 µg/mL)
- MIC (Saccharomyces cerevisiae): 440 µM (≈ 253 µg/mL)
- MIC (Escherichia coli [4]): 440 µM (≈ 253 µg/mL)
- MIC (Aspergillus flavus): 440 µM (≈ 253 µg/mL)
- MIC (Cyberlindnera jadinii): 440 µM (≈ 253 µg/mL)
- MIC (Pseudomonas aeruginosa): 220 µM (≈ 126 µg/mL)
- MIC (Bacillus subtilis [5]): 440 µM (≈ 253 µg/mL)

Compound: CCCCc1nc(Cl)c(/C=N/N2C(=O)c3cccc4c(N5CCOCC5)ccc(c34)C2=O)n1Cc1ccc(C)cc1
- MIC (Staphylococcus aureus [1]): 220 µM (≈ 125 µg/mL)
- MIC (Shigella dysenteriae): 0.11 µM (≈ 0.0627 µg/mL)
- MIC (Staphylococcus aureus [2]): 450 µM (≈ 257 µg/mL)
- MIC (Candida albicans): 450 µM (≈ 257 µg/mL)
- MIC (Escherichia coli [3]): 60 µM (≈ 34.2 µg/mL)
- MIC (Bacillus): 450 µM (≈ 257 µg/mL)
- MIC (Candida): 900 µM (≈ 513 µg/mL)
- MIC (Micrococcus luteus): 450 µM (≈ 257 µg/mL)
- MIC (Salmonella typhi): 0.45 µM (≈ 0.257 µg/mL)
- MIC (Saccharomyces cerevisiae): 450 µM (≈ 257 µg/mL)
- MIC (Escherichia coli [4]): 890 µM (≈ 507 µg/mL)
- MIC (Aspergillus flavus): 900 µM (≈ 513 µg/mL)
- MIC (Cyberlindnera jadinii): 110 µM (≈ 62.7 µg/mL)
- MIC (Pseudomonas aeruginosa): 450 µM (≈ 257 µg/mL)
- MIC (Bacillus subtilis [5]): 890 µM (≈ 507 µg/mL)

Compound: CCCCc1nc(Cl)c(/C=N/N2C(=O)c3cccc4c(N5CCOCC5)ccc(c34)C2=O)n1Cc1ccc(Cl)cc1Cl
- MIC (Staphylococcus aureus [1]): 180 µM (≈ 112 µg/mL)
- MIC (Shigella dysenteriae): 0.37 µM (≈ 0.231 µg/mL)
- MIC (Staphylococcus aureus [2]): 370 µM (≈ 231 µg/mL)
- MIC (Candida albicans): 370 µM (≈ 231 µg/mL)
- MIC (Escherichia coli [3]): 370 µM (≈ 231 µg/mL)
- MIC (Bacillus): 370 µM (≈ 231 µg/mL)
- MIC (Candida): 370 µM (≈ 231 µg/mL)
- MIC (Micrococcus luteus): 180 µM (≈ 112 µg/mL)
- MIC (Salmonella typhi): 0.37 µM (≈ 0.231 µg/mL)
- MIC (Saccharomyces cerevisiae): 370 µM (≈ 231 µg/mL)
- MIC (Escherichia coli [4]): 740 µM (≈ 462 µg/mL)
- MIC (Aspergillus flavus): 180 µM (≈ 112 µg/mL)
- MIC (Cyberlindnera jadinii): 180 µM (≈ 112 µg/mL)
- MIC (Pseudomonas aeruginosa): 180 µM (≈ 112 µg/mL)
- MIC (Bacillus subtilis [5]): 370 µM (≈ 231 µg/mL)

Compound: CCCCc1nc(Cl)c(/C=N/N2C(=O)c3cccc4c(N5CCOCC5)ccc(c34)C2=O)n1Cc1cccc(Cl)c1
- MIC (Staphylococcus aureus [1]): 430 µM (≈ 254 µg/mL)
- MIC (Shigella dysenteriae): 0.11 µM (≈ 0.065 µg/mL)
- MIC (Staphylococcus aureus [2]): 430 µM (≈ 254 µg/mL)
- MIC (Candida albicans): 430 µM (≈ 254 µg/mL)
- MIC (Escherichia coli [3]): 430 µM (≈ 254 µg/mL)
- MIC (Bacillus): 220 µM (≈ 130 µg/mL)
- Ratio (Bacillus subtilis [6]): 14
- MIC (Candida): 430 µM (≈ 254 µg/mL)
- MIC (Micrococcus luteus): 430 µM (≈ 254 µg/mL)
- MIC (Salmonella typhi): 0.43 µM (≈ 0.254 µg/mL)
- MIC (Saccharomyces cerevisiae): 220 µM (≈ 130 µg/mL)
- MIC (Escherichia coli [4]): 430 µM (≈ 254 µg/mL)
- MIC (Aspergillus flavus): 430 µM (≈ 254 µg/mL)
- MIC (Cyberlindnera jadinii): 220 µM (≈ 130 µg/mL)
- MIC (Pseudomonas aeruginosa): 430 µM (≈ 254 µg/mL)
- MIC (Bacillus subtilis [5]): 7 µM (≈ 4.13 µg/mL)

Compound: CCn1cc(C(=O)O)c(=O)c2cc(F)c(N3CCNCC3)cc21 [NORFLOXACIN]
- MIC (Staphylococcus aureus [1]): 6 µM (≈ 1.92 µg/mL)
- MIC (Shigella dysenteriae): 0.05 µM (≈ 0.016 µg/mL)
- MIC (Staphylococcus aureus [2]): 20 µM (≈ 6.39 µg/mL)
- MIC (Escherichia coli [3]): 3 µM (≈ 0.958 µg/mL)
- MIC (Bacillus): 20 µM (≈ 6.39 µg/mL)
- MIC (Micrococcus luteus): 6 µM (≈ 1.92 µg/mL)
- MIC (Escherichia coli [4]): 3 µM (≈ 0.958 µg/mL)
- MIC (Pseudomonas aeruginosa): 50 µM (≈ 16 µg/mL)
- MIC (Bacillus subtilis [5]): 10 µM (≈ 3.19 µg/mL)

Compound: CCCCCCCCn1c(CCCC)nc(Cl)c1/C=N/N1C(=O)c2cccc3c(N4CCOCC4)ccc(c23)C1=O
- MIC (Staphylococcus aureus [1]): 220 µM (≈ 127 µg/mL)
- MIC (Shigella dysenteriae): 0.88 µM (≈ 0.509 µg/mL)
- MIC (Staphylococcus aureus [2]): 440 µM (≈ 254 µg/mL)
- MIC (Candida albicans): 440 µM (≈ 254 µg/mL)
- MIC (Escherichia coli [3]): 220 µM (≈ 127 µg/mL)
- MIC (Bacillus): 440 µM (≈ 254 µg/mL)
- MIC (Candida): 440 µM (≈ 254 µg/mL)
- MIC (Micrococcus luteus): 880 µM (≈ 509 µg/mL)
- MIC (Salmonella typhi): 0.44 µM (≈ 0.254 µg/mL)
- MIC (Saccharomyces cerevisiae): 880 µM (≈ 509 µg/mL)
- MIC (Escherichia coli [4]): 440 µM (≈ 254 µg/mL)
- MIC (Aspergillus flavus): 880 µM (≈ 509 µg/mL)
- MIC (Cyberlindnera jadinii): 880 µM (≈ 509 µg/mL)
- MIC (Pseudomonas aeruginosa): 880 µM (≈ 509 µg/mL)
- MIC (Bacillus subtilis [5]): 440 µM (≈ 254 µg/mL)

Compound: CCCCc1nc(Cl)c(/C=N/N2C(=O)c3cccc4c(Br)ccc(c34)C2=O)[nH]1
- MIC (Staphylococcus aureus [1]): 1110 µM (≈ 510 µg/mL)
- MIC (Shigella dysenteriae): 0.56 µM (≈ 0.257 µg/mL)
- MIC (Staphylococcus aureus [2]): 560 µM (≈ 257 µg/mL)
- MIC (Candida albicans): 1110 µM (≈ 510 µg/mL)
- MIC (Escherichia coli [3]): 1110 µM (≈ 510 µg/mL)
- MIC (Bacillus): 1110 µM (≈ 510 µg/mL)
- MIC (Candida): 1110 µM (≈ 510 µg/mL)
- MIC (Micrococcus luteus): 1110 µM (≈ 510 µg/mL)
- MIC (Salmonella typhi): 1.11 µM (≈ 0.51 µg/mL)
- MIC (Saccharomyces cerevisiae): 140 µM (≈ 64.4 µg/mL)
- MIC (Escherichia coli [4]): 1110 µM (≈ 510 µg/mL)
- MIC (Aspergillus flavus): 1110 µM (≈ 510 µg/mL)
- MIC (Cyberlindnera jadinii): 1110 µM (≈ 510 µg/mL)
- MIC (Pseudomonas aeruginosa): 560 µM (≈ 257 µg/mL)
- MIC (Bacillus subtilis [5]): 560 µM (≈ 257 µg/mL)

Compound: CCCCc1nc(Cl)c(/C=N/N2C(=O)c3cccc4c(N5CCOCC5)ccc(c34)C2=O)n1Cc1ccc(F)cc1
- MIC (Staphylococcus aureus [1]): 890 µM (≈ 511 µg/mL)
- MIC (Shigella dysenteriae): 0.89 µM (≈ 0.511 µg/mL)
- MIC (Staphylococcus aureus [2]): 440 µM (≈ 253 µg/mL)
- MIC (Candida albicans): 440 µM (≈ 253 µg/mL)
- MIC (Escherichia coli [3]): 440 µM (≈ 253 µg/mL)
- MIC (Bacillus): 440 µM (≈ 253 µg/mL)
- MIC (Candida): 440 µM (≈ 253 µg/mL)
- MIC (Micrococcus luteus): 440 µM (≈ 253 µg/mL)
- MIC (Salmonella typhi): 0.44 µM (≈ 0.253 µg/mL)
- MIC (Saccharomyces cerevisiae): 890 µM (≈ 511 µg/mL)
- MIC (Escherichia coli [4]): 890 µM (≈ 511 µg/mL)
- MIC (Aspergillus flavus): 890 µM (≈ 511 µg/mL)
- MIC (Cyberlindnera jadinii): 440 µM (≈ 253 µg/mL)
- MIC (Pseudomonas aeruginosa): 890 µM (≈ 511 µg/mL)
- MIC (Bacillus subtilis [5]): 440 µM (≈ 253 µg/mL)
